Measurements from patent publication US20180154170A1, “METHODS AND COMPOSITIONS FOR TREATING MENTAL DISORDERS AND CONDITIONS” (priority 2015, published 2018).

How the values were obtained:
[1] = system: AMPA and NMDA receptors in the NAcc; experiment: Tail suspension test with optical reactivation of dentate gyrus positive memory cells, glutamate antagonists infused into the NAcc; type: in vivo; conditions: stressed mice; bilateral infusion into NAcc (NBQX 22.3 mM, AP5 38.04 mM, 0.2 μl per hemisphere), 20 min before behavior; compared with saline
Description: Glutamate antagonists were bilaterally infused into the NAcc as follows: 0.2 μl per hemisphere of NBQX at a concentration of 22.3 mM to antagonize AMPA (α-amino-3-hydroxy-5-methyl-4-isoxazole propionic acid) receptors and 0.2 μl per hemisphere of AP5 at a concentration of 38.04 mM to antagonize NMDA (N-methyl-D-aspartate) receptors. Dopamine receptor antagonists were bilaterally infused into the NAcc as follows: 0.2 μl SCH23390 at a concentration of 6.16 mM to antagonize D1-like receptors and 0.2 μl raclopride at a concentration of 2.89 mM to antagonize D2-like receptors. A 26-gauge stainless steel double internal cannula (PlasticsOne) was used to bilaterally infuse each drug; the internal cannula was connected with a microsyringe pump by a PE20 tube to control the injection rate at 100 nl min^−1. The injection cannula was left connected for 5 min before removal to allow for diffusion. Finally, all behavior was performed 20 min following drug infusion.
Fibre optic implants on experimental mice were plugged into a patch cord before the tail suspension test. Each subject was hung by its tail from a bar 40 cm from the ground with a single piece of autoclave tape. […] An experimenter blind to each mouse condition and light treatment scored all the tail suspension videos by measuring the total time in seconds that each mouse spent struggling throughout the protocol.

[2] = system: magnocellular and parvocellular BLA neurons; conditions: bath application 10 μM; cells clamped at 0 mV; 10 Hz train; n=6 magnocellular, n=6 parvocellular
Description: Male mice (mean-PND 45 days) were anesthetized by isoflurane and their brains were dissected. By using a vibratome (VT1000S, Leica) 300 μm-thick parasagittal slices containing the basolateral amygdala were prepared in oxygenated cutting solution at ˜4° C. Slices were then incubated at −23° C. in oxygenated artificial cerebrospinal fluid (ACSF). The cutting solution contained 3 mM KCl, 0.5 mM CaCl2, 10 mM MgCl2, 25 mMNaHCO3, 1.2 mM NaHPO4, 10 mM d-glucose, 230 mM sucrose, saturated with 95% O/5% CO2 (pH 7.3, osmolarity 340 mOsm). […]
Whole-cell recordings in current-clamp or voltage-clamp mode were performed by using an infrared differential interference contrast microscope (BX51, Olympus) with a water immersion 40× objective (N.A. 0.8), and equipped with four automatic manipulators (Luigs & Neumann) and a CCD camera (Orca R2, Hamamatsu). […] Access resistance was monitored throughout the duration of the experiment and data acquisition was suspended whenever the resting membrane potential was depolarized above −50 mV or the access resistance was beyond 20 MΩ. […]
Optogenetic stimulation was achieved through a 460-nm LED light source (XLED1, Lumen Dynamics) driven by TTL input with a delay onset of 25 μs (subtracted off-line). […] In voltage-clamp cells were held at 0 mV for IPSC measurements, whereas, in current mode, EPSP and action potentials were measured at resting potentials. […]

[3] = reported in reference 28; cited from earlier work

Row | SMILES | behavioral effects of optically reactivating dentate gyrus cells labelled by a positive experience in the TST [1] | also measured
1 | NC(CCCP(=O)(O)O)C(=O)O (stereo not shown) [AP5] | blocked | 
2 | NS(=O)(=O)c1cccc2c1c([N+](=O)[O-])cc1nc(O)c(O)nc12 [NBQX] | blocked | 
3 | COc1ccc(-c2ccc(=N)n(CCCC(=O)O)n2)cc1 [gabazine] |  | inhibitory postsynaptic currents (IPSCs) evoked by optogenetic stimulation of Ppp1r1b-ChR2+ and Rspo2-ChR2+ fibers [2]: blocked
4 | CNC1(c2ccccc2Cl)CCCCC1=O (stereo not shown) [ketamine] |  | antidepressant effect in patients [3]: rapid effects in a subset of patients
